For three compounds, inhibition results are on record in patent US20220009920A1 (GB005, Inc., priority 2020, published 2022).

Common to all, as to test: Large panel kinase profiling
Common to all, as to assay type: biochemical
Common to all, as to conditions: 1 μM test article, 1 mM ATP

The target in one assay is FGFR2 (Homo sapiens, UniProt P21802). A digest of the protocol:
(§1)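 Single-point profiling at 1 μM test article used 1 mM ATP. Phosphorylation was tracked by sensor fluorescence increase over time at 30° C., with readings each minute at excitation 360 nm and emission 485 nm.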

For a further assay, the target named is T1, DYRK2 (Homo sapiens, UniProt Q92630).
T1 construct: AssayQuant Technologies, Inc. (service laboratory)
T1 sequence (Q92630 1-601): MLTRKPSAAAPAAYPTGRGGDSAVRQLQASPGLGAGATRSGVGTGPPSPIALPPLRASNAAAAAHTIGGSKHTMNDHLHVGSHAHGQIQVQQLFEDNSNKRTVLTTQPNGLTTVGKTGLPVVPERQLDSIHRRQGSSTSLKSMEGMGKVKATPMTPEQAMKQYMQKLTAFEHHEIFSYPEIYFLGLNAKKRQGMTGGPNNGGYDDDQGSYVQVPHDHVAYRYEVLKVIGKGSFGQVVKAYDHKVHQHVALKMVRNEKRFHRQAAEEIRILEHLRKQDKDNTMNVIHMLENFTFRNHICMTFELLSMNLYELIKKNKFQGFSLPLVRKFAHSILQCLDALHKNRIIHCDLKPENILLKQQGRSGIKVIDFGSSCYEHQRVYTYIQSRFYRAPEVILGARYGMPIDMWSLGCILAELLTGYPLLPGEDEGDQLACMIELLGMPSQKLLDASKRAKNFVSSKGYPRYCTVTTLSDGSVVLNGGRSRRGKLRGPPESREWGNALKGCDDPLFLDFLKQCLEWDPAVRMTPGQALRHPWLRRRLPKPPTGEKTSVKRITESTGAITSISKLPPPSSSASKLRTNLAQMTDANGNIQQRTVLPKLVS
A digest of the protocol: as §1

In another assay the target is T2, MAPK11/P38B (Homo sapiens, UniProt Q15759).
T2 construct: AssayQuant Technologies, Inc. (service provider)
T2 sequence (Q15759 whole entry): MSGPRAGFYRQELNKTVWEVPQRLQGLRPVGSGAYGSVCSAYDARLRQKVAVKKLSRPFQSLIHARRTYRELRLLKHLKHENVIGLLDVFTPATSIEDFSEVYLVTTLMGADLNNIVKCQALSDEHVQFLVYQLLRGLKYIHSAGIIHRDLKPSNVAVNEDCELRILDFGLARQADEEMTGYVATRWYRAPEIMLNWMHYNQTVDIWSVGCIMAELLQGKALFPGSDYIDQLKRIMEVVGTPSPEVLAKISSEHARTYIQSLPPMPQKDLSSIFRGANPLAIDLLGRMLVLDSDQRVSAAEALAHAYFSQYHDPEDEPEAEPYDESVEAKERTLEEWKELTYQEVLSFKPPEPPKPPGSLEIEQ
The essentials: as §1

For the next assay, the target named is T3, TNIK (Homo sapiens, UniProt Q9UKE5).
T3 construct: AssayQuant Technologies, Inc. (contract laboratory that ran the panel)
T3 sequence (Q9UKE5 whole entry, species assumed): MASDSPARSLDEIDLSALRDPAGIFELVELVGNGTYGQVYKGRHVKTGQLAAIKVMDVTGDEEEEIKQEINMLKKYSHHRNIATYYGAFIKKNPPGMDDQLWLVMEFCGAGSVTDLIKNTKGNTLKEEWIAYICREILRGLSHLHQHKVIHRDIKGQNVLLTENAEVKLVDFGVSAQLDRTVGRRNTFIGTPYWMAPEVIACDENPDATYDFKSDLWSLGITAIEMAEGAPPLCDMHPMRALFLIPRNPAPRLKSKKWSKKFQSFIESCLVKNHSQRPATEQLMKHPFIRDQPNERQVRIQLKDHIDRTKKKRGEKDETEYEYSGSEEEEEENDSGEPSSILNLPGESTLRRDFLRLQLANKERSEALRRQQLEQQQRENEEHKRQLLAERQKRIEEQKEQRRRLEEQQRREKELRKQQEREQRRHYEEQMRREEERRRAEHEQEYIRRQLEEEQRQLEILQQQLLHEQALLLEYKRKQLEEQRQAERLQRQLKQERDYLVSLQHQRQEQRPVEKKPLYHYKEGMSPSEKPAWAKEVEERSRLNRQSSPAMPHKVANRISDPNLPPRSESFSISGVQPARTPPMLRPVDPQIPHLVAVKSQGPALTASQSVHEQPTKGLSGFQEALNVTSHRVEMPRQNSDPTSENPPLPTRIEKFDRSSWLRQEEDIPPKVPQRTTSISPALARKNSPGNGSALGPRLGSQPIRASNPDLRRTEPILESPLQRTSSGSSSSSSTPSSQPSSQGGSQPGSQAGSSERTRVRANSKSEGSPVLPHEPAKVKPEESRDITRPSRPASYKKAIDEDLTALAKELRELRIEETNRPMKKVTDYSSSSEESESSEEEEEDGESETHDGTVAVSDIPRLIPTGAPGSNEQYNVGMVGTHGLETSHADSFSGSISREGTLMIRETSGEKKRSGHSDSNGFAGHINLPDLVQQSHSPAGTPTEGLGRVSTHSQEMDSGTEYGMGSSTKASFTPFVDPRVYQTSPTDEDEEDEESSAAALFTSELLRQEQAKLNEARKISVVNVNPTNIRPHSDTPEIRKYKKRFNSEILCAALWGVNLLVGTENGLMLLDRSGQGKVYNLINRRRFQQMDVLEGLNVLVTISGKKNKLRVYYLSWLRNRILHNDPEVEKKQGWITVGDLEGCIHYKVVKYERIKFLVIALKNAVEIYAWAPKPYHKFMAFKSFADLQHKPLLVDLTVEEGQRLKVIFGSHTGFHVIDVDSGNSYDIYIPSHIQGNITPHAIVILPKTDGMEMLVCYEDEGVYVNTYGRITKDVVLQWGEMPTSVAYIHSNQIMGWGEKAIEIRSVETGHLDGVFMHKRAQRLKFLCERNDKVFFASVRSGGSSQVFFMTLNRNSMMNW
The essentials:
as §1

A further assay addresses PRKCG/PKCG (Homo sapiens, UniProt P05129). A digest of the protocol: as §1
In another assay the target is T4, STK3/MST2 (Homo sapiens, UniProt Q13188).
T4 construct: AssayQuant Technologies, Inc. (contract assay)
T4 sequence (Q13188 1-491): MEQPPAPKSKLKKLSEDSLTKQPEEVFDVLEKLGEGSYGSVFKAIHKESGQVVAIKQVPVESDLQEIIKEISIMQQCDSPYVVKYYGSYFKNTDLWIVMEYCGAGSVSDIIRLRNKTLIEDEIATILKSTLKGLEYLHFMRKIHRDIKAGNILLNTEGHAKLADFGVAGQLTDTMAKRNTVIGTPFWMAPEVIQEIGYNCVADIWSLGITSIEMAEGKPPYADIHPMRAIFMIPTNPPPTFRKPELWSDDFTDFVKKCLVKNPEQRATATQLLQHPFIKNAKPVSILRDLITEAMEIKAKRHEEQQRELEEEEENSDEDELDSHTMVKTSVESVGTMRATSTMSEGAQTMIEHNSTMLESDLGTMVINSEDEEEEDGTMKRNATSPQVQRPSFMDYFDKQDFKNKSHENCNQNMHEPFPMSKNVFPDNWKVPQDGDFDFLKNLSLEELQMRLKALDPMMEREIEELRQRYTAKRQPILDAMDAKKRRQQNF
The essentials:
as §1

Another assay deals with T5, AXL (Homo sapiens, UniProt P30530).
T5 sequence (P30530 26-894): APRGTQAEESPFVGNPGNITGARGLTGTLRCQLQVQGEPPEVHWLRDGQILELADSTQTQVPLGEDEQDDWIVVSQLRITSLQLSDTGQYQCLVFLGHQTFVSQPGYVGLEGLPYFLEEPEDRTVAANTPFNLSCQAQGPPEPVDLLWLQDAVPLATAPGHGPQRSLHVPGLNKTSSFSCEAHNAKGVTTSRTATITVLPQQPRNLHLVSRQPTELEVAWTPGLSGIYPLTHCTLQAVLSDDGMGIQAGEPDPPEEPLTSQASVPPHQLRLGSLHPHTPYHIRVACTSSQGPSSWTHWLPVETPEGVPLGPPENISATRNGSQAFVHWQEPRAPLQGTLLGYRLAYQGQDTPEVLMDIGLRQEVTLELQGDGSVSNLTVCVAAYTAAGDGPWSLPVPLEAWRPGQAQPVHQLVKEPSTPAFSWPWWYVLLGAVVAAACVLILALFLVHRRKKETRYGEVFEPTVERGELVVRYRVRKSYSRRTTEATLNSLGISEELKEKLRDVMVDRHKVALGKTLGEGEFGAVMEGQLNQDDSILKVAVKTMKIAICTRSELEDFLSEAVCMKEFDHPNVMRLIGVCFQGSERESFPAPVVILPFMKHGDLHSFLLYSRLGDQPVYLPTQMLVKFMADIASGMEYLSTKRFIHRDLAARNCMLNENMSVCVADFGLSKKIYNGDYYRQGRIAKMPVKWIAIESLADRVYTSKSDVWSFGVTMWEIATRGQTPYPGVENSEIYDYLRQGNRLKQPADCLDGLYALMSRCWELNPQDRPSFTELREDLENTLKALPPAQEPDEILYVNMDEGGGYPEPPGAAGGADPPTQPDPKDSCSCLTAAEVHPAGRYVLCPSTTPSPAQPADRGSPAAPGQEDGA
A digest of the protocol:
as §1

As usually defined, the inhibition is the drop in the measured response relative to a control, in per cent.

Sequence of FGFR2 (P21802 22-821, species assumed): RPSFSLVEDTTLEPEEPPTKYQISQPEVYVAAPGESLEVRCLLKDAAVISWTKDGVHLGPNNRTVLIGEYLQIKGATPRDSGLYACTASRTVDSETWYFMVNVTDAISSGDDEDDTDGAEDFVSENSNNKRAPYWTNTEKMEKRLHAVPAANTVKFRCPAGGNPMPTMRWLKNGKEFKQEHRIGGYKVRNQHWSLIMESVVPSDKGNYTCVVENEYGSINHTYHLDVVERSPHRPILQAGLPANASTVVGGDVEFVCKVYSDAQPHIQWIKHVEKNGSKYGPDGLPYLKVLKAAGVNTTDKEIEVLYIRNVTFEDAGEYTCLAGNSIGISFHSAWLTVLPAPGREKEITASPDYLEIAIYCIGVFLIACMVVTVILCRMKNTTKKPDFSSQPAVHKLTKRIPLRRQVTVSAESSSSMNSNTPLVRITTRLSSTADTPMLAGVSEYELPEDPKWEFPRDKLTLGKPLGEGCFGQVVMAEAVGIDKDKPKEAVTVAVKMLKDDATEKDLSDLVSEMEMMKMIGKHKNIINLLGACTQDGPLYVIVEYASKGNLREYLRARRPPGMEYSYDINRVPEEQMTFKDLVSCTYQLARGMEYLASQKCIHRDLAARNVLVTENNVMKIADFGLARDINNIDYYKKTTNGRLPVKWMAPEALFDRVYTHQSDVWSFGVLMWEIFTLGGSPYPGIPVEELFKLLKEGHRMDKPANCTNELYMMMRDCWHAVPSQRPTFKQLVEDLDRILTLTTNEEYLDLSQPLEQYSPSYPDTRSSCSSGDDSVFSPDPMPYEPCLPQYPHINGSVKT

Turning to `C=CC(=O)N1CCCC(c2c(F)cc(C(N)=O)c3[nH]c4c(c23)CCCCC4)C1` (single isomer, unassigned) [Compound 5-6], the inhibition at 1 µM against FGFR2 was 17.7%; against DYRK2, 6.1%; on MAPK11/P38B it was -3.3%; on TNIK it was 9.9%; against PRKCG/PKCG, -7.3%; against STK3/MST2 it was -13.7%. For the same compound, the inhibition at 1 µM against AXL is -20.3%.

`C=CC(=O)N1CCC[C@@H](c2c(F)cc(C(N)=O)c3[nH]c4c(c23)CC2(CC4)CC2)C1` [Compound 6-2, (S)-5-(1-acryloylpiperidin-3-yl)-6-fluoro-1,2,4,9-tetrahydrospiro[carbazole-3,1′-cyclopropane]-8-carboxamide]: the inhibition at 1 µM against FGFR2 was -15.3%; against DYRK2, 13.3%; on MAPK11/P38B, 32.9%; against TNIK, -29.3%; on PRKCG/PKCG it was 8.6%; at STK3/MST2 it was -25.3%. On AXL, the inhibition at 1 µM is 1.5%.

With `C=CC(=O)N1CCC[C@@H](c2c(F)cc(C(N)=O)c3[nH]c4c(c23)CCC4)C1` [Compound 10-2, (S)-8-(1-acryloylpiperidin-3-yl)-7-fluoro-1,2,3,4-tetrahydrocyclo-penta[b]indole-5-carboxamide], the inhibition at 1 µM at FGFR2 was -3.5%; at DYRK2 it was 0.3%; on MAPK11/P38B it was 5.7%; against TNIK, -22.9%; on PRKCG/PKCG, 1.3%; on STK3/MST2, -14.4%. The inhibition at 1 µM against AXL is -1.7%.
